Results published in patent US6592894B1, “Hydrogel-isolated cochleate formulations, process of preparation and their use for the delivery of biologically relevant molecules” (BioDelivery Sciences International, Inc., priority 1999, dated 2003).

System: Candida albicans
Test: Fungicidal effect, ratio of colony forming units to total cell number
Type: cell-based
Conditions: 0.625 μg AmB/ml, after 30 hours of incubation
Method: Aliquots of yeast cells (50 μl) were removed from the 96 well plates and serially diluted (up to 1:10000 for plating onto agar plates) and counted using a hemocytometer. Fifty μl of the diluted yeast cells were plated onto YPD agar plates and incubated for 24 hours at 37° C. Yeast colonies were counted using a BioRad Fluor-S Multi-Imager equipped with Quanitity One™ software.
Yeast cells treated with AmBisome, AmB/DMSO and AmB/cochleates (0.625 μg AmB/ml) were examined for the ratio of colony forming units to total cell number after 30 hours of incubation. […] The AmBisome was not as effective, resulting in 52% yeast viability (FIG. 7).

C[C@@H]1[C@H](O)[C@@H](C)/C=C/C=C/C=C/C=C/C=C/C=C/C=C/[C@H](O[C@@H]2O[C@H](C)[C@@H](O)[C@H](N)[C@@H]2O)C[C@@H]2O[C@](O)(C[C@@H](O)C[C@@H](O)[C@H](O)CC[C@@H](O)C[C@@H](O)CC(=O)O[C@H]1C)C[C@H](O)[C@H]2C(=O)O [AmB/DMSO, Amphotericin B]
yeast viability (ratio of colony forming units to total cell number): 12%
